# Laboratory results taken from patent US8697696B2, “Triazole compounds II” (Roche Palo Alto LLC, priority 2010, dated 2014).
# Molecular target: human GABA A α5β3γ2 receptor (Homo sapiens (Human), UniProt P18507+P31644)
# Assay: [3H]flumazenil competition radioligand binding assay, human GABA A α5β3γ2 receptors in HEK293 cells
# Conditions: HEK293 cells expressing human receptors (transiently transfected); 0.5 nM [3H]flumazenil; means of two determinations; read-out: hKi GABA Aα5
# Procedure: The ability of compounds present invention to bind to GABA A receptor subtypes was determined by competition for [^3H]flumazenil (85 Ci/mmol; Roche) binding to HEK293 cells expressing rat (stably transfected) or human (transiently transfected) receptors of composition α1β2/3γ2, α2β3γ2, α3β3γ2 and α5β3γ2.
# Cell pellets were suspended in Krebs-tris buffer (4.8 mM KCl, 1.2 mM CaCl2, 1.2 mM MgCl2, 120 mM NaCl, 15 mM Tris; pH 7.5; binding assay buffer), homogenized by polytron for ca. 20 sec on ice and centrifuged for 60 min at 4° C. (50000 g; Sorvall, rotor: SM24=20000 rpm). The cell pellets were resuspended in Krebs-tris buffer and homogenized by polytron for ca. 15 sec on ice. Protein was measured (Bradford method, Bio-Rad) and aliquots of 1 mL were prepared and stored at −80° C.
# Assays were incubated to equilibrium for 1 hour at 4° C. and harvested onto GF/C uni-filters (Packard) by filtration using a Packard harvester and washing with ice-cold wash buffer (50 mM Tris; pH 7.5). After drying, filter-retained radioactivity was detected by liquid scintillation counting.
# Ki values were calculated using Excel-Fit (Microsoft) and are the means of two determinations.
# Representative test results, obtained by the above described assay measuring binding affinity to HEK293 cells expressing human (h) receptors, are shown in Table 1 below.
row,Ki [nM],SMILES
1,15.7,"Cc1nnn(-c2ccc(F)cc2)c1COc1cc(C(=O)NC2CCOCC2)n(C)n1 [Example 3, 5-[3-(4-Fluoro-phenyl)-5-methyl-3H-[1,2,3]triazol-4-ylmethoxy]-2-methyl-2H-pyrazole-3-carboxylic acid (tetrahydro-pyran-4-yl)-amide]"
2,22.2,"Cc1nnn(-c2ccc(F)cc2)c1COc1cc(C(=O)NN2CCOCC2)n(C)n1 [Example 4, 5-[3-(4-Fluoro-phenyl)-5-methyl-3H-[1,2,3]triazol-4-ylmethoxy]-2-methyl-2H-pyrazole-3-carboxylic acid morpholin-4-ylamide]"
3,45.3,"Cn1nc(OCc2c(-c3ccc(F)cc3)nnn2C)cc1C(=O)NC1CCOCC1 [Example 2, 5-[5-(4-Fluoro-phenyl)-3-methyl-3H-[1,2,3]triazol-4-ylmethoxy]-2-methyl-2H-pyrazole-3-carboxylic acid (tetrahydro-pyran-4-yl)-amide]"
4,11.3,"Cc1nc(/C=C/c2c(-c3ccc(F)cc3)nnn2C)sc1C(=O)NC(C)C [Example 6, 2-{(E)-2-[5-(4-Fluoro-phenyl)-3-methyl-3H-[1,2,3]triazol-4-yl]vinyl}-4-methyl-thiazole-5-carboxylic acid isopropylamide]"
5,43.2,"Cc1nnn(-c2ccc(F)cc2)c1COc1cc(C(=O)NC2(C)COC2)n(C)n1 [Example 5, 5-[3-(4-Fluoro-phenyl)-5-methyl-3H-[1,2,3]triazol-4-ylmethoxy]-2-methyl-2H-pyrazole-3-carboxylic acid (3-methyl-oxetan-3-yl)-amide]"
6,20.7,"Cc1nc(/C=C/c2c(-c3ccccn3)nnn2C)sc1C(=O)NC(C)C [Example 10, 4-Methyl-2-[(E)-2-(3-methyl-5-pyridin-2-yl-3H-[1,2,3]triazol-4-yl)-vinyl]-thiazole-5-carboxylic acid isopropylamide]"
7,6.8,"Cc1nc(/C=C/c2c(C)nnn2-c2ccc(F)cc2)sc1C(=O)NC(C)C [Example 9, 2-{(E)-2-[3-(4-Fluoro-phenyl)-5-methyl-3H-[1,2,3]triazol-4-yl]-vinyl}-4-methyl-thiazole-5-carboxylic acid isopropylamide]"
8,28.8,"Cn1nnc(-c2ccc(F)cc2)c1COc1cc(C(=O)NC2CCOCC2)on1 [Example 1, 3-[5-(4-Fluoro-phenyl)-3-methyl-3H-[1,2,3]triazol-4-ylmethoxyl]isoxazole-5-carboxylic acid (tetrahydro-pyran-4-yl)-amide]"
